“And” between values parts separate entries of the source, which are not always exact repeats. Equal entries are not always repeated. Starred links: 1 amine or outer side, 2 acyl side, 3 side chain; linkers in the order of their positions; H or OH if unused. Positions of bridges follow the written chain, without caps; N, C: chain ends. Non-standard residues stand in square brackets, D forms with d. Residues, ends and D or L forms follow the SMILES beside them. Chains are numbered I, II in the order given. Actinocin(9to1) = Cc1c2oc3c(C)ccc(C(=O)[*:1])c3nc-2c(C(=O)[*:2])c(N)c1=O; aThr = C[C@H](O)[C@H](N)C(=O)O; NMeV = CN[C@H](C(=O)O)C(C)C; Sar = CNCC(=O)O
Tested on: BDF1 mice, Adenocarcinoma 755 s.c., tumor weight T/C
Experiment: NCI In Vivo Anticancer Drug Screen. Data for tumor model Adenocarcinoma 755 (subcutaneous) in B6D2F1 (BDF1) mice
Conditions: endpoint: mean tumor weight, schedule: Q01DX011 (ip), higher = larger tumour
Description: The antitumor activity of compounds was measured in mice bearing transplantable tumors. Survival or tumor size were measured and the results are expressed as the measurement made in the treated group (T) divided by the measurement made in the vehicle treated control group (C). The tumor model used in this assay is Adenocarcinoma 755 (subcutaneous) in B6D2F1 (BDF1) mice

[1] = dose: 1.0 mg/kg/injection, vehicle: saline
[2] = dose: 50.0 mg/kg/injection, vehicle: saline
[3] = dose: 100.0 mg/kg/injection, vehicle: saline
[4] = dose: 25.0 mg/kg/injection, vehicle: other
[5] = dose: 125.0 mg/kg/injection, vehicle: saline
[6] = dose: 500.0 mg/kg/injection, vehicle: saline
[7] = dose: 30.0 mg/kg/injection, vehicle: carboxymethylcellulose (CMC)
[8] = dose: 60.0 mg/kg/injection, vehicle: carboxymethylcellulose (CMC)
[9] = dose: 120.0 mg/kg/injection, vehicle: carboxymethylcellulose (CMC)
[10] = dose: 240.0 mg/kg/injection, vehicle: carboxymethylcellulose (CMC)

## C=CCSc1ncnc2c1ncn2C1OC(CO)C(O)C1O (centres undefined)
[1]
  T/C: 63 % of control
dose: 1.6 mg/kg/injection, vehicle: saline
  T/C: 82 % of control
dose: 2.0 mg/kg/injection, vehicle: saline
  T/C: 112 % of control
dose: 3.2 mg/kg/injection, vehicle: saline
  T/C: 119 % of control
dose: 4.0 mg/kg/injection, vehicle: saline
  T/C: 50 % of control
dose: 5.0 mg/kg/injection, vehicle: saline
  T/C: 75 % of control
dose: 6.3 mg/kg/injection, vehicle: saline
  T/C: 40 % of control
dose: 7.0 mg/kg/injection, vehicle: saline
  T/C: 16 % of control
dose: 10.0 mg/kg/injection, vehicle: saline
  T/C: 38 % of control
dose: 12.5 mg/kg/injection, vehicle: saline
  T/C: 42 % of control
dose: 13.0 mg/kg/injection, vehicle: saline
  T/C: 2 % of control
dose: 20.0 mg/kg/injection, vehicle: saline
  T/C: 8 % of control
dose: 25.0 mg/kg/injection, vehicle: saline
  T/C: 1 % of control and 19 % of control
dose: 40.0 mg/kg/injection, vehicle: saline
  T/C: 1 % of control
[2]
  T/C: 18 % of control
dose: 80.0 mg/kg/injection, vehicle: saline
  T/C: 1 % of control
[3]
  T/C: 11 % of control

## NC(=O)CCl
[4]
  T/C: 91 % of control
dose: 50.0 mg/kg/injection, vehicle: other
  T/C: 64 % of control

## CCSc1ncc(Br)c(Sc2nc(N)nc3nc[nH]c23)n1
dose: 0.5 mg/kg/injection, vehicle: carboxymethylcellulose (CMC)
  T/C: 69 % of control
dose: 0.5 mg/kg/injection, vehicle: methylcellulose (MC)
  T/C: 68 % of control
dose: 1.0 mg/kg/injection, vehicle: carboxymethylcellulose (CMC)
  T/C: 17 % of control and 30 % of control
dose: 1.0 mg/kg/injection, vehicle: methylcellulose (MC)
  T/C: 37 % of control
dose: 1.5 mg/kg/injection, vehicle: carboxymethylcellulose (CMC)
  T/C: 18 % of control
dose: 2.0 mg/kg/injection, vehicle: carboxymethylcellulose (CMC)
  T/C: 57 % of control
dose: 3.0 mg/kg/injection, vehicle: carboxymethylcellulose (CMC)
  T/C: 3 % of control and 5 % of control and 23 % of control
dose: 4.0 mg/kg/injection, vehicle: carboxymethylcellulose (CMC)
  T/C: 2 % of control
dose: 6.0 mg/kg/injection, vehicle: carboxymethylcellulose (CMC)
  T/C: 2 % of control
dose: 8.0 mg/kg/injection, vehicle: carboxymethylcellulose (CMC)
  T/C: 15 % of control
dose: 12.0 mg/kg/injection, vehicle: carboxymethylcellulose (CMC)
  T/C: 3 % of control

## Cc1cn(C2OC(CO)C(O)C2O)c(=O)[nH]c1=O (centres undefined)
dose: 62.0 mg/kg/injection, vehicle: saline
  T/C: 86 % of control
[5]
  T/C: 78 % of control
[6]
  T/C: 121 % of control

## Cc1c2oc3c(C)ccc(C(=O)N[C@@H]4C(=O)N[C@H](C(C)C)C(=O)N5CCC[C@H]5C(=O)N(C)CC(=O)N(C)[C@@H](C(C)C)C(=O)O[C@H]4C)c3nc-2c(C(=O)N[C@@H]2C(=O)N[C@H](C(C)C)C(=O)N3CCC[C@H]3C(=O)N(C)CC(=O)N(C)[C@@H](C(C)C)C(=O)O[C@H]2C)c(N)c1=O (I: [aThr][dV]P[Sar][NMeV] / II: [aThr][dV]P[Sar][NMeV]; ester I:1-I:C, II:1-II:C; linker I:N-II:N via Actinocin(9to1))
dose: 0.02 mg/kg/injection, vehicle: saline
  T/C: 2 % of control
dose: 0.03 mg/kg/injection, vehicle: carboxymethylcellulose (CMC)
  T/C: 9 % of control
dose: 0.04 mg/kg/injection, vehicle: carboxymethylcellulose (CMC)
  T/C: 105 % of control
dose: 0.08 mg/kg/injection, vehicle: carboxymethylcellulose (CMC)
  T/C: 39 % of control
dose: 12.0 micrograms/kg/injection, vehicle: carboxymethylcellulose (CMC)
  T/C: 101 % of control
dose: 15.0 micrograms/kg/injection, vehicle: carboxymethylcellulose (CMC)
  T/C: 82 % of control
dose: 24.0 micrograms/kg/injection, vehicle: carboxymethylcellulose (CMC)
  T/C: 26 % of control and 43 % of control
dose: 40.0 micrograms/kg/injection, vehicle: carboxymethylcellulose (CMC)
  T/C: 4 % of control and 13 % of control
dose: 48.0 micrograms/kg/injection, vehicle: carboxymethylcellulose (CMC)
  T/C: 10 % of control and 11 % of control
dose: 53.0 micrograms/kg/injection, vehicle: carboxymethylcellulose (CMC)
  T/C: 3 % of control and 4 % of control
dose: 95.0 micrograms/kg/injection, vehicle: carboxymethylcellulose (CMC)
  T/C: 2 % of control

## CC(=O)OCC1OC(n2cnc3c(Cl)nc(N)nc32)C(OC(C)=O)C1OC(C)=O (centres undefined)
[7]
  T/C: 114 % of control
[8]
  T/C: 118 % of control
[9]
  T/C: 78 % of control
[10]
  T/C: 72 % of control

## NNC(=O)c1nsnc1NC(N)=O
dose: 43.0 mg/kg/injection, vehicle: carboxymethylcellulose (CMC)
  T/C: 39 % of control
[8]
  T/C: 18 % of control

## O=c1[nH]cc(C(F)(F)F)c(=O)[nH]1
[2]
  T/C: 53 % of control
[3]
  T/C: 65 % of control
dose: 200.0 mg/kg/injection, vehicle: saline
  T/C: 38 % of control and 57 % of control
dose: 300.0 mg/kg/injection, vehicle: saline
  T/C: 40 % of control and 56 % of control
dose: 400.0 mg/kg/injection, vehicle: saline
  T/C: 32 % of control and 34 % of control
[6]
  T/C: 56 % of control and 65 % of control
dose: 600.0 mg/kg/injection, vehicle: saline
  T/C: 37 % of control

## CCn1cnc2c(SC(C)C)ncnc21
dose: 16.0 mg/kg/injection, vehicle: carboxymethylcellulose (CMC)
  T/C: 42 % of control
dose: 31.0 mg/kg/injection, vehicle: carboxymethylcellulose (CMC)
  T/C: 4 % of control

## C[C@]12CC[C@H](OC3OC(CO)C(O)C(O)C3O)C[C@H]1CC[C@@H]1[C@@H]2CC[C@]2(C)[C@@H](C3=CCOC3=O)CC[C@]12O (some centres undefined)
dose: 0.13 mg/kg/injection, vehicle: saline
  T/C: 34 % of control
dose: 0.25 mg/kg/injection, vehicle: saline
  T/C: 35 % of control
dose: 0.5 mg/kg/injection, vehicle: saline
  T/C: 22 % of control and 44 % of control
[1]
  T/C: 3 % of control

## CCCCN(C)N=Nc1ccc(CCC(=O)OCC)cc1
dose: 62.5 mg/kg/injection, vehicle: saline
  T/C: 95 % of control
[5]
  T/C: 38 % of control
dose: 250.0 mg/kg/injection, vehicle: saline
  T/C: 80 % of control

## O=C1C=C(c2ccccc2)C(=O)C=C1c1ccccc1
dose: 12.5 mg/kg/injection, vehicle: other
  T/C: 72 % of control
[4]
  T/C: 48 % of control

## O=C1Nc2ccccc2SC1c1ccccc1Cl (centres undefined)
dose: 75.0 mg/kg/injection, vehicle: methylcellulose (MC)
  T/C: 94 % of control and 78 % of control
dose: 150.0 mg/kg/injection, vehicle: methylcellulose (MC)
  T/C: 54 % of control and 60 % of control

## Cn1c(=O)c2c(nc(N/N=C/c3ccccc3C(=O)O)n2C)n(C)c1=O
[7]
  T/C: 76 % of control
[8]
  T/C: 69 % of control
[9]
  T/C: 74 % of control
[10]
  T/C: 62 % of control
